The values below are quoted from earlier work in paper PMC3563429 (Journal of the American Chemical Society, 2013).

The test system of this series is human calpain protease 1. To be noted: for inhibitory action against the cysteine protease calpain 1: described in the patent literature; for IC50: read-out: IC50 against human calpain protease 1, previously reported.

For `CCCCCC/C=C\CC(=O)N[C@@H](Cc1ccc(O)cc1)[C@@H](O)CC(=O)N[C@H](C(=O)N[C@@H](CO)[C@@H](O)CC(=O)N[C@H](C(=O)N[C@@H]1C=CC(=O)N[C@@H](C(C)C)C(=O)N(C)[C@@H](Cc2ccc(O)cc2)C(=O)OC1)C(C)C)C(C)C` [Compound 12, thalassospiramide B1], the “inhibitory action against the cysteine protease calpain 1” value was “nanomolar inhibitory action” and the IC50 is 80 nM.
With “Thalassospiramide D1 [Thalassospiramide D1 (15)]”, the “inhibitory action against the cysteine protease calpain 1” value is reported as “nanomolar inhibitory action” and the IC50 is 39 nM.
